Values of other authors, collected in patent US20120022018A1, “ANTI-VIRAL PROPERTIES OF ALOE VERA AND ACQUIRED IMMUNE DEFICIENCY SYNDROME (AIDS) TREATMENT” (NORTH TEXAS MEDICAL ASSOCIATES, priority 2010, published 2012).

Experiments:
[1] = system: HIV-1 envelope glycoprotein; details: HIV-1 infected monocytes cultures; instead of usual GP-160, GP-120, GP-41 bands
[2] = system: New Castle and paramyxoviruses; details: New Castle and paramyxoviruses in culture; altered envelope glycoproteins
[3] = system: monocytic/macrophagic (M/M) cell counts; details: in vivo

Acemannan
effect on HIV-1 envelope glycoprotein [1]: induced the production of multiple molecular weights of HIV-1 envelope glycoprotein
effect on infectivity of virions [2]: rendered the virions incapable of infecting susceptible target cell lines as well as animals
monocytic/macrophagic (M/M) cell counts [3]: increase
